Test results published in ChEMBL document CHEMBL1201862, “PubChem BioAssay data set” (2004).
Activity calls are given as the source filed them.

Experiments:
Large T antigen = Large T antigen (Simian virus 40, UniProt P03070); assay type: functional, Betapolyomavirus macacae;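 note: Confirmatory-stage PubChem screen for compounds that inhibit SV40 T antigen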
[1] = target: T1, Sentrin-specific protease 1 (Homo sapiens, UniProt Q9P0U3); assay: potency of human SENP1 inhibitors, dose response, biochemical, kinetic FRET (AID 651697); assay type: functional; settings: read-out: IC50_Mean
T1 sequence (Q9P0U3 whole entry): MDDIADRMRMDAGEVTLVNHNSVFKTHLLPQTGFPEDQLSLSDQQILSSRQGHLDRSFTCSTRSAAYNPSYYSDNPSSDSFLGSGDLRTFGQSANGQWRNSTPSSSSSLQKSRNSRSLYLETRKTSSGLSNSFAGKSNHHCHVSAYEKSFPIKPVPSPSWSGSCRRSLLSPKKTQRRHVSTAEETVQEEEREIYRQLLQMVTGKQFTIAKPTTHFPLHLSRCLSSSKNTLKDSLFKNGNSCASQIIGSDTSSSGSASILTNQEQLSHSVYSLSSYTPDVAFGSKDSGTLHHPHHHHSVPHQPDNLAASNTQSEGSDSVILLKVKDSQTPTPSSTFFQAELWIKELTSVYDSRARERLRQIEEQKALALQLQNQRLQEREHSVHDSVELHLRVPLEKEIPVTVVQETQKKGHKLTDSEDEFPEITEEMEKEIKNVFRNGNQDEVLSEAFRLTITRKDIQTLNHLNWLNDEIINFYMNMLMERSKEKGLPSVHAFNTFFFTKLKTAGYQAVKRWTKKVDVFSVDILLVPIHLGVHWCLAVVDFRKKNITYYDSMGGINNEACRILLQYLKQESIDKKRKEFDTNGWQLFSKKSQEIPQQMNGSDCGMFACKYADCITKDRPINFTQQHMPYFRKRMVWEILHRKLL

[2] = target: T1, Sentrin-specific protease 1; assay: Dose response confirmation of small molecule inhibitors of the catalytic domain of the SUMO protease, SENP1 in a FRET assay.; assay type: functional; settings: read-out: IC50_Mean
[3] = target: T2, Rac GTPase-activating protein 1 (Homo sapiens, UniProt Q9H0H5); assay: MgcRacGAP GTPase-activating activity inhibitors, confirmation, biochemical, ADP Hunter fluorescence, primary and confirmatory (AID 624330); assay type: functional
T2 sequence (Q9H0H5 whole entry): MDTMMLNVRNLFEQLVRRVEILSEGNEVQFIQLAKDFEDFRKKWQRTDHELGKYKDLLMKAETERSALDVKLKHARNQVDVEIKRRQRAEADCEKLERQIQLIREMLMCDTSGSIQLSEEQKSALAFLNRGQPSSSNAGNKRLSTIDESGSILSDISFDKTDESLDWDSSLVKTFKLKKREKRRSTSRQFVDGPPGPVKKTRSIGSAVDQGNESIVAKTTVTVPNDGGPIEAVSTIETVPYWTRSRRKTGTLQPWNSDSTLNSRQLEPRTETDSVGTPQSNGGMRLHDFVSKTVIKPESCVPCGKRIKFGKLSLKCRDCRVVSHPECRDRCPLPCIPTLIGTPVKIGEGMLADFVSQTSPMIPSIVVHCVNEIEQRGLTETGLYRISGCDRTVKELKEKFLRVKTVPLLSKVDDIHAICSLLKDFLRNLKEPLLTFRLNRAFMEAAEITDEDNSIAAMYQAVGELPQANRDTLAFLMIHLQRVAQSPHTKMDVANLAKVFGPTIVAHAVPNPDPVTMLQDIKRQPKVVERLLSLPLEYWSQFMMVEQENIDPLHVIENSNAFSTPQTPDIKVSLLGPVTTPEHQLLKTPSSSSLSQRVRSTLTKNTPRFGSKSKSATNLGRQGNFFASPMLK

[4] = THP-1 cell cytotoxicity, dose response, cytotoxicity control for non-replicating M. tuberculosis project (AID 489025); assay type: functional
[5] = HepG2 cell cytotoxicity, dose response, cytotoxicity control for non-replicating M. tuberculosis project (AID 489018); assay type: functional; settings: Mycobacterium tuberculosis
[6] = Vero E6 cell cytotoxicity, dose response, cytotoxicity control for non-replicating M. tuberculosis project, secondary assay (AID 492998); assay type: functional, VeroE6; settings: Vero C1008
Vero = assay: cells; assay type: functional; settings: Chlorocebus sabaeus
[7] = insulin promoter down-regulators in MIN6 cells, imaging, high-content screening, mouse beta cells (AID 1628); assay type: functional
[8] = cytotoxicity in MIN6 insulinoma cells, dose response, cytotoxicity control, cell-based, mouse insulinoma (AID 2122); assay type: functional;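 note: confirmatory high-throughput counterscreen run to flag cytotoxic compounds; mouse MIN-6 beta cells carrying an insulin promoter eGFP reporter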
[9] = target: DNA dC->dU-editing enzyme APOBEC-3A (Homo sapiens, UniProt P31941); assay: Dose Response confirmation of small molecule APOBEC3A DNA Deaminase Inhibitors via a fluorescence-based single-stranded DNA deaminase assay. [Related pubchem assays (depositor defined):AID493011, AID493024]; assay type: functional
Sequence of DNA dC->dU-editing enzyme APOBEC-3A (P31941 whole entry): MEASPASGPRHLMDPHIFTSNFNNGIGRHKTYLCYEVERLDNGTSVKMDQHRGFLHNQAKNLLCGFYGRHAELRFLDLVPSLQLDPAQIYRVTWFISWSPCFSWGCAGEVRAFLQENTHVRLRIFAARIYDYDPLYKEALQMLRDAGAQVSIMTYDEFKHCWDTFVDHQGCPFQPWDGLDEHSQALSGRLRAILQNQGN

[10] = target: DNA dC->dU-editing enzyme APOBEC-3G (Homo sapiens, UniProt Q9HC16); assay type: functional;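 note: Dose-response counterscreen measuring inhibition of APOBEC3G DNA deaminase activity, run while confirming APOBEC3A inhibitors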
Sequence of DNA dC->dU-editing enzyme APOBEC-3G (Q9HC16 whole entry): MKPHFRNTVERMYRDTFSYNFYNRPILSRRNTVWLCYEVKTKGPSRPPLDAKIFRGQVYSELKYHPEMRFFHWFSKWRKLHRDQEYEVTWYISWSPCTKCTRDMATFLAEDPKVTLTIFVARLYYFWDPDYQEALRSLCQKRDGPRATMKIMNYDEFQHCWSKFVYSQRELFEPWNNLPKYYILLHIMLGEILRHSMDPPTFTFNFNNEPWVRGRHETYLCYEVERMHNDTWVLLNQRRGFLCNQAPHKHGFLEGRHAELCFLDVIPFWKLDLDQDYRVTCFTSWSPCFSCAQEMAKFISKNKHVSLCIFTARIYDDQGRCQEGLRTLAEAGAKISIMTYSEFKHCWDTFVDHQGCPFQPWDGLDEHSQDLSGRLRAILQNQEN

Cytochrome P450 2D6 [11] = target: T3, Cytochrome P450 2D6 (Homo sapiens, UniProt P10635);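 note: CYP2D6 member of a cytochrome P450 panel assay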
T3 sequence (P10635 whole entry): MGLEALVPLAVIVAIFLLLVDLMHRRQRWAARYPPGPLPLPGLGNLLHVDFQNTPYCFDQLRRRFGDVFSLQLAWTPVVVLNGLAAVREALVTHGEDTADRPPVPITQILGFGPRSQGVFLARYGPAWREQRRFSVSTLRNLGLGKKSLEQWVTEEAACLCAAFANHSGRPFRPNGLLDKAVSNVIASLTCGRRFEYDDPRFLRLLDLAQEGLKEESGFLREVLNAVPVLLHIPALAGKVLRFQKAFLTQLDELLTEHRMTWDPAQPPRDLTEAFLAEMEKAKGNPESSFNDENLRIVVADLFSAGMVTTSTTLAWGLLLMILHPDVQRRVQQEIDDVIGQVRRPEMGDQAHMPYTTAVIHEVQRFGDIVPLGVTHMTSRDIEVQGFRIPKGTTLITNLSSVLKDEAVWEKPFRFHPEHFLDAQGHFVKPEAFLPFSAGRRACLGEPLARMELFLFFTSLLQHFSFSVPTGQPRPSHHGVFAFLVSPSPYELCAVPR

[12] = tested on: Streptococcus sp. 'group A'; assay: growth inhibition of control SK(-) GAS strain, dose response, counter-screen for streptokinase expression inhibitor project, luminescence, kanamycin, BacTiterGlo, confirmation (AID 1900); assay type: functional, organism-based
Streptokinase A = target: T4, Streptokinase A (Streptococcus pyogenes serotype M1, UniProt P10520); assay: S. pyogenes streptokinase expression inhibitors, potency, dose response, plasminogen activation absorbance, OD405 (AID 1914); assay type: functional, Streptococcus pyogenes M1 GAS;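 note: secreted streptokinase activity via plasminogen activation per viability signal from cell pellet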
T4 sequence (P10520 whole entry): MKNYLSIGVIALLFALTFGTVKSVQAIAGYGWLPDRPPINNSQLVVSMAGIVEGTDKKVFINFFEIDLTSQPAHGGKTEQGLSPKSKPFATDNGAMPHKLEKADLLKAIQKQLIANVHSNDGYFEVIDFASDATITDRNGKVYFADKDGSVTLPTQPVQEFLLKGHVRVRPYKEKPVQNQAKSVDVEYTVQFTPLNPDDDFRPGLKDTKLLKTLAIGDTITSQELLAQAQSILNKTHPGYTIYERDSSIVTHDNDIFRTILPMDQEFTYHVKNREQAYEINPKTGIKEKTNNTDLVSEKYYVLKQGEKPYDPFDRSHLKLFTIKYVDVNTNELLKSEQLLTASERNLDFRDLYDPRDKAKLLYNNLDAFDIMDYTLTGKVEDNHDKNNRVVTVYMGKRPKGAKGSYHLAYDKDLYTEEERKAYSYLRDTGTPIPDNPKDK

Streptococcus = assay: Group A Streptococcus viability loss, dose response, counter-screen for streptokinase expression inhibitor project, luminescence, BacTiterGlo (AID 1915); assay type: functional, organism-based;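 note: potency for reduction of bacterial viability or growth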
[13] = target: G-protein coupled receptor 55 (Homo sapiens, UniProt Q9Y2T6); assay: GPR55 agonists via beta-arrestin recruitment, primary screen, imaging, U2OS cells, beta-arrestin-GFP redistribution (AID 1961); assay type: functional
Sequence of G-protein coupled receptor 55 (Q9Y2T6 whole entry): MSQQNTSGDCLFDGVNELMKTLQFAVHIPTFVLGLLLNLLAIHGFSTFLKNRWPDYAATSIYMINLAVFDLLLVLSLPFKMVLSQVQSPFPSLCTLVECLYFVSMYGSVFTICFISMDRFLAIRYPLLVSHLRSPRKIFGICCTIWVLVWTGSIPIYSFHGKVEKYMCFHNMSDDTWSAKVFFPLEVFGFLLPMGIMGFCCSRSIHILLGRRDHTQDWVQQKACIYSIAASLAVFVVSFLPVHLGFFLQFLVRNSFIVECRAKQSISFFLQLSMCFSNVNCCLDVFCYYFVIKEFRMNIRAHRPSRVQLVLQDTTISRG

[14] = target: T5, Replicative DNA helicase DnaB (Mycobacterium tuberculosis, UniProt P9WMR3); assay: DnaB intein splicing inhibitors, dose response, biochemical, cell-free fluorescence (AID 449749); assay type: functional
T5 sequence (P9WMR3 whole entry): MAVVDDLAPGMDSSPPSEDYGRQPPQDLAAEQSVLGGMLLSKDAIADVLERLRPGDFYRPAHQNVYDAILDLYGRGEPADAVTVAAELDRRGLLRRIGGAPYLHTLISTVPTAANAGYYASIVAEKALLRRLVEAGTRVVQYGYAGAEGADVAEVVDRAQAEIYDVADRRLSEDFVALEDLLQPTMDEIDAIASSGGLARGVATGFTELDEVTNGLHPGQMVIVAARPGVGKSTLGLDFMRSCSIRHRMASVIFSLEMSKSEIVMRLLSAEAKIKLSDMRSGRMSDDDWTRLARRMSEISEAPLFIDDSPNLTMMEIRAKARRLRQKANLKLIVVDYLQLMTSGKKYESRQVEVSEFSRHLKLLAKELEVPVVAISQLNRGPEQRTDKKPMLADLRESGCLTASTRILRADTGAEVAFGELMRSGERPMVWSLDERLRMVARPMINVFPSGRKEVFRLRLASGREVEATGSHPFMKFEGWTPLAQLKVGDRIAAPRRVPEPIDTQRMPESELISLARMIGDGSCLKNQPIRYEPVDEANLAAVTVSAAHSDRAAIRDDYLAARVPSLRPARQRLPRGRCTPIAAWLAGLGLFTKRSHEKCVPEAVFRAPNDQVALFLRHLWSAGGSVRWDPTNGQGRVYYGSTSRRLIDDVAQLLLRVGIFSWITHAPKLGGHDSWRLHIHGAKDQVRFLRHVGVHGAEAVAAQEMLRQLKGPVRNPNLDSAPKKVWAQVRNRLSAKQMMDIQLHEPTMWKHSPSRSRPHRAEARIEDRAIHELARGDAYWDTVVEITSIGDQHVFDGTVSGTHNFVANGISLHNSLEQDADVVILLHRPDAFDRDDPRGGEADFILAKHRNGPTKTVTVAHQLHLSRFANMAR

Protein RecA = target: T6, Protein RecA (Mycobacterium tuberculosis, UniProt P9WHJ3); assay: Fluorescence Cell-Free Homogeneous Dose Retest to Identify Inhibitors of RecA-Intein Splicing Activity. [Related pubchem assays (depositor defined):AID2097, AID2223, AID489010, AID492950]; assay type: functional
T6 sequence (P9WHJ3 whole entry): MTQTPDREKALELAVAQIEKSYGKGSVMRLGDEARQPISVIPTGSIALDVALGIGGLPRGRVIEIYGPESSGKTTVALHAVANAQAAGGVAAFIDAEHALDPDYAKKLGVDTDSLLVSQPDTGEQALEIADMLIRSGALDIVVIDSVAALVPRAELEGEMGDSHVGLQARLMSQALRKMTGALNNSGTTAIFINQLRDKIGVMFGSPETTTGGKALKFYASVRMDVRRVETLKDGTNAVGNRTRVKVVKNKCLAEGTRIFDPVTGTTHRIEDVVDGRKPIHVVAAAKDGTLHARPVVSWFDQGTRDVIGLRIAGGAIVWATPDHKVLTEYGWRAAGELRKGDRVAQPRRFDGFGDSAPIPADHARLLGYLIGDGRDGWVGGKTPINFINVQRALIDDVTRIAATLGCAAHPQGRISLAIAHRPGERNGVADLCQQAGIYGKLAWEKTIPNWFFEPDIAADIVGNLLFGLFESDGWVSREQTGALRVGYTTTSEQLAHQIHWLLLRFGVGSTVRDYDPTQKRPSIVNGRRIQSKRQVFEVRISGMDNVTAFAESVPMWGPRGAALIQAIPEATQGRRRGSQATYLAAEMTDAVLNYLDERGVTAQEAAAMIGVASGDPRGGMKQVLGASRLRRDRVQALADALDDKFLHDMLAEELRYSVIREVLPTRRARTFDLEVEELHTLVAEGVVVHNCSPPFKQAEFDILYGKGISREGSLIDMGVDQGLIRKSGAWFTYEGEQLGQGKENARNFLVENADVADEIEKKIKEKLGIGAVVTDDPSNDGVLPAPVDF

[15] = inhibitors of intracellular T. cruzi replication, confirmation, NIH3T3 host cells, beta-gal luminescence (AID 2044); assay type: functional, cell-based;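 note: intracellular parasites grown in NIH/3T3 mouse fibroblasts as host cells; luminescent beta-galactosidase reporter signal from transgenic T. cruzi replicating inside host cells; inhibitors lower the luminescence signal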
[16] = cytotoxicity toward NIH3T3 fibroblasts, dose response, counter-screen, cell-based, ATP luminescence, mouse fibroblasts (AID 2010); assay type: functional;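 note: cells exposed to compound for about 90 hours before reading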
[17] = growth suppression of PTEN-null colon cells, dose response, cell-based, HCT116 PTEN knockout (AID 1047); assay type: functional;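 note: HCT116 colon tumor cells with PTEN knocked out; cells exposed to compound for 60 hours before readout; potency for loss of cell viability measured by luminescence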
[18] = growth suppression of beta-catenin-knockout colon cells, dose response, cell-based, HCT116, human colon tumor (AID 1045); assay type: functional;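 note: HCT116 colon tumor cells with beta catenin knocked out; cells exposed to compound for 60 hours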
Cytochrome P450 2C19 = Cytochrome P450 2C19 (Homo sapiens, UniProt P33261); assay: Cytochrome panel assay with activity outcomes. Panel member name: p450-cyp2c19 Compounds with AC50 equal or less than 10 uM are considered active; assay type: functional
Sequence of Cytochrome P450 2C19 (P33261 whole entry): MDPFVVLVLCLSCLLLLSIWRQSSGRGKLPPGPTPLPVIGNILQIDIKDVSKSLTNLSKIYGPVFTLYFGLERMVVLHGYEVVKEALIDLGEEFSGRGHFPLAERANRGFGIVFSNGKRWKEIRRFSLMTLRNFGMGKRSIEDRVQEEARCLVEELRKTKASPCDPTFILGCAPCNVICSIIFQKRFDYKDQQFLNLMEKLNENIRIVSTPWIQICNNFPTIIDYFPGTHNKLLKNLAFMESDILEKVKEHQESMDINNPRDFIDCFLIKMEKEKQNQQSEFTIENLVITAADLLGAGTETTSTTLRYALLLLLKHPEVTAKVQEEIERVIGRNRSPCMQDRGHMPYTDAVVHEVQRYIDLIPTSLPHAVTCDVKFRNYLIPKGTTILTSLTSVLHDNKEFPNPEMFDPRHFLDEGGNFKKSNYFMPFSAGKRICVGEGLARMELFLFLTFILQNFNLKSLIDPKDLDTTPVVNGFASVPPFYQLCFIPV

Cytochrome P450 2D6 [19] = target: T3, Cytochrome P450 2D6; remark: listed apart in the source
Cytochrome P450 2C9 = Cytochrome P450 2C9 (Homo sapiens, UniProt P11712)
Sequence of Cytochrome P450 2C9 (P11712 whole entry): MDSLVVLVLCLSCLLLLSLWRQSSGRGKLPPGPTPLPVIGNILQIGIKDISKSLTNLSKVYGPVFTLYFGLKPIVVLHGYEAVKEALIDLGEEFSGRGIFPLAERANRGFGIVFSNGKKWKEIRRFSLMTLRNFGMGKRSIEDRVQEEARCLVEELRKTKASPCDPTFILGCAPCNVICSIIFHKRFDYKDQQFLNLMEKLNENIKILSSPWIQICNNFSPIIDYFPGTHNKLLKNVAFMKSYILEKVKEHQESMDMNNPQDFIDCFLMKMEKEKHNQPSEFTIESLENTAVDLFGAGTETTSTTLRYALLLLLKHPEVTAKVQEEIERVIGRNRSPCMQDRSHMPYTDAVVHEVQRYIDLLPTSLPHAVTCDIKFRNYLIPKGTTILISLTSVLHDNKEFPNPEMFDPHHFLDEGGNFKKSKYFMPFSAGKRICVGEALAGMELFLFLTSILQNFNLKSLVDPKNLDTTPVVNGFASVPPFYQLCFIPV

Sequence of Large T antigen (P03070 whole entry): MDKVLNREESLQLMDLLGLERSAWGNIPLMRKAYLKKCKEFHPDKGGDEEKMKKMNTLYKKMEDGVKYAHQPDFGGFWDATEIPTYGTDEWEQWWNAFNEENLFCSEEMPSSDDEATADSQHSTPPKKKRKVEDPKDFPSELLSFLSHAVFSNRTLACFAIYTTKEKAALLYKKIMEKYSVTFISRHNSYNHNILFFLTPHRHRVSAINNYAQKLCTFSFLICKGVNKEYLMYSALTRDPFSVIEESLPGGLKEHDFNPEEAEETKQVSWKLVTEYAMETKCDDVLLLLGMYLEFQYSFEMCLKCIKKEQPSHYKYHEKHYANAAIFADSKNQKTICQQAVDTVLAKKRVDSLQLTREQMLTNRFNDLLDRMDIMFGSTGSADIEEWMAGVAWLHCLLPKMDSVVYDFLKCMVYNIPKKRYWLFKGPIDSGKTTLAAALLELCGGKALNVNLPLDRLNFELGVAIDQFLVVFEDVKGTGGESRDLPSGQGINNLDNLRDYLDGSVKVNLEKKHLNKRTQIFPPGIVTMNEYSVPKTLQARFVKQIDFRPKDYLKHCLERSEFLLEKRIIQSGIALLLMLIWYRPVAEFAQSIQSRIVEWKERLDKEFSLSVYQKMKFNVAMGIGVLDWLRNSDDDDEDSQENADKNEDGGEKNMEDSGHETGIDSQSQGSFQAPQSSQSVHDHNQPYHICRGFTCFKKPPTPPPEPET

CCOc1cc(/C=C2\N=C3CCCCCN3C2=O)ccc1O
IC50 (Large T antigen): 16.9 µM (active) | IC50 [1]: 9.57 µM (active) | IC50 [2]: 7.67 µM (active) | IC50 [3]: 39.9 µM (active)

CC/C(=C\c1oc2cc3ccccc3cc2[n+]1CC)Nc1ccccc1
CC50 [4]: 16 µM (active) | CC50 [5]: > 20 µM (active) | CC50 [6]: > 20 µM (active) | CC50 (Vero): 18.7 µM (active)

C=CCC(C#Cc1ccccc1)[N+](C)(C)CC=C (stereo unspecified)
IC50 [7]: 8.7 µM (active) | IC50 [8]: 10.7 µM (inactive)

CCN1C(NCc2ccc(OC)cc2)=N[C@@H](c2ccccc2)C(C(=O)OC)=C1C
IC50 [9]: 4.07 µM (active) | IC50 [10]: 5.66 µM (active)

Cc1ccc(NC(=O)CSc2nnc(-c3ccncc3)o2)cc1
AC50 (Cytochrome P450 2D6 [11]): inconclusive

CC(=O)Nc1ccc(S(=O)(=O)Nc2nc3ccccc3nc2Nc2ccc(O)cc2)cc1
IC50 (Large T antigen): 9.57 µM (active)

CC1C(=O)C(C)C(c2cc(Cl)ccc2O)NC1c1cc(Cl)ccc1O (stereo unspecified)
EC50 [12]: 1.4 µM (active) | EC50 (Streptokinase A): > 150 µM (not active) | EC50 (Streptococcus): 11.5 µM (active) | EC50 [13]: > 32 µM (inactive) | AC50 [14]: 4.77 µM (active) | EC50 (Protein RecA): 8.24 µM (active)

CCC(C)C(=O)Nc1nc(C)c(-c2csc(Nc3ccc(Cl)cc3)n2)s1 (stereo unspecified)
IC50 [7]: 2.48 µM (active) | IC50 [8]: 3.05 µM (active) | EC50 [15]: 1.75 µM (active) | EC50 [16]: > 60 µM (not active)

CCC(C)NCC(=O)Nc1ccc(-c2nc3cc(NC(=O)CNC(C)CC)ccc3o2)cc1 (stereo unspecified)
IC50 [7]: 2.17 µM (active) | IC50 [8]: 1.66 µM (active) | EC50 [17]: 4.19 µM (active) | EC50 [18]: 2.98 µM (active)

C[N+](C)(C)CCN(Cc1ccc(Cl)cc1)c1ccccn1.[I-]
IC50 [9]: 2.05 µM (active) | IC50 [10]: 2.01 µM (active) | AC50 (Cytochrome P450 2C19): inconclusive | AC50 (Cytochrome P450 2D6 [19]): 0.251 µM (inconclusive) | AC50 (Cytochrome P450 2C9): inconclusive

CCn1c(C)nc2cc(S(=O)(=O)Nc3ccc(C)cc3)ccc21
IC50 [9]: 4.42 µM (active) | IC50 [10]: 4.4 µM (active)

COc1ccc(NCN2C(=O)C3C4C=CC(C4)C3C2=O)cc1 (stereo unspecified)
IC50 (Large T antigen): 23.2 µM (active)
